Assay results as given in the supplement of paper PMC10307832.

Columns and labels:
Experiment in all cases: relative viability (nuclei count vs DMSO), 5 days (fraction); higher = more cells survive
[1] = compound: CC1=C(C=C(C=C1)NC(=O)C2=CC(=CC=C2)C(C)(C)C#N)NC3=CC4=C(C=C3)N=CN(C4=O)C [AZ628] + Nc1ncn([C@H]2C[C@H](O)[C@@H](CO)O2)c(=O)n1 [Decitabine] (partner 2 µM)
How it was run: (§1)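 For relative viability, nuclei counts in treated wells were divided by those in vehicle wells. Lung cancer cell lines had been pin-tool dosed in 1536-well plates the day after seeding and cultured for 5 days, then fixed and stained in one step (final 0.05% Triton X-100, 1% formaldehyde, 1 ug/ml Hoechst) and imaged at 4×. Doses were one drug alone or a fixed anchor-drug dose plus five library-drug doses (not always all listed) in √10 steps, and values are duplicate-plate medians.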

[2] = compound: CC1=C(C=C(C=C1)NC(=O)C2=CC(=CC=C2)C(C)(C)C#N)NC3=CC4=C(C=C3)N=CN(C4=O)C [AZ628] + C[C@@H](Oc1cc(-c2cnn(C3CCNCC3)c2)cnc1N)c1c(Cl)ccc(F)c1Cl [Crizotinib] (partner 1 µM)
How it was run: as §1

[3] = compound: CC1=C(C=C(C=C1)NC(=O)C2=CC(=CC=C2)C(C)(C)C#N)NC3=CC4=C(C=C3)N=CN(C4=O)C [AZ628] + CC(=O)c1c(C)c2cnc(Nc3ccc(N4CCNCC4)cn3)nc2n(C2CCCC2)c1=O [Palbociclib] (partner 0.5 µM)
How it was run: as §1

[4] = compound: C[As](C)SC[C@H](NC(=O)CC[C@H](N)C(=O)O)C(=O)NCC(=O)O [Darinaparsin] + CC(=O)Nc1cccc(-n2c(=O)n(C3CC3)c(=O)c3c(Nc4ccc(I)cc4F)n(C)c(=O)c(C)c32)c1 [Trametinib] (partner 0.02 µM)
How it was run: as §1

LCLC-97TM1 was tested. Which relative viability ([1]; first compound 0.08 µM) did it give?
Its relative viability is 0.276.

And the relative viability ([1]; first compound 0.253 µM)?
Its relative viability is 0.265.

And the relative viability ([1]; first compound 0.8 µM)?
The relative viability was 0.257.

And the relative viability ([1]; first compound 2.53 µM)?
The relative viability was 0.199.

What about the relative viability ([1]; first compound 8 µM) of the same cell line?
Its relative viability is 0.13.

What about the relative viability ([2]; first compound 0.08 µM) of the same cell line?
The relative viability was 0.741.

And the relative viability ([2]; first compound 0.253 µM)?
Its relative viability is 0.501.

And the relative viability ([2]; first compound 0.8 µM)?
The relative viability was 0.352.

What about the relative viability ([2]; first compound 2.53 µM) of the same cell line?
The relative viability was 0.413.

What about the relative viability ([2]; first compound 8 µM) of the same cell line?
Its relative viability is 0.205.

What about the relative viability ([3]; first compound 0.08 µM) of the same cell line?
Its relative viability is 0.231.

What about the relative viability ([3]; first compound 0.253 µM) of the same cell line?
Its relative viability is 0.217.

What about the relative viability ([3]; first compound 0.8 µM) of the same cell line?
The relative viability was 0.193.

And the relative viability ([3]; first compound 2.53 µM)?
Its relative viability is 0.182.

And the relative viability ([3]; first compound 8 µM)?
The relative viability was 0.113.

And the relative viability ([4]; first compound 0.08 µM)?
Its relative viability is 0.264.

And the relative viability ([4]; first compound 0.8 µM)?
The relative viability was 0.237.

And the relative viability ([4]; first compound 2.53 µM)?
The relative viability was 0.204.

What about the relative viability ([4]; first compound 8 µM) of the same cell line?
Its relative viability is 0.225.
